# Residue numbers refer to the chain shown, from its start. Read-outs that look alike come from different tables or passages of the source.
# Key:
# ALK2 [1] = molecular target: T1, ALK2 (Mus musculus, UniProt P37172); assay: HTRF pSMAD1 cell-based ALK2 assay (C2C12 cells, BMP6 as agonist); details: BMP6
# T1 construct: The C2C12 cell line was selected for the measurement of ALK2 activity using BMP6 as the agonist; host or cells: C2C12
# T1 sequence (P37172 21-509): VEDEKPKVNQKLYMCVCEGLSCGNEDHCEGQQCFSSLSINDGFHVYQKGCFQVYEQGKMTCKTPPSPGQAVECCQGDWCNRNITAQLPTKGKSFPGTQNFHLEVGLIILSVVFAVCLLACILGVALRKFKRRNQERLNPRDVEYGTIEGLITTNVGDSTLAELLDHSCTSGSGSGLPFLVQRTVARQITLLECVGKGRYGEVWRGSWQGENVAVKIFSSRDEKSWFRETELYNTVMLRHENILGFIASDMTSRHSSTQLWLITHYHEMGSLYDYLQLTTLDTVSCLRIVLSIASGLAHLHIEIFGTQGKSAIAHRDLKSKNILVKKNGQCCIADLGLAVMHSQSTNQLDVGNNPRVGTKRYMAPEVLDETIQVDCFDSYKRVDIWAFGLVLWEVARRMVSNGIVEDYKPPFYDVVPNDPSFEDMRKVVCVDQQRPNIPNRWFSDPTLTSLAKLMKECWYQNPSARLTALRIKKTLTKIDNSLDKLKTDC
# Description: 2. HTRF Cell-Based ALK1 and ALK2 Assays in 384-Well Plate Format We have developed a cell based ALK1 kinase assay and a cell-based ALK2 assay. The BAOEC cell line was employed for the measurement of ALK1 activity using BMP9 as the agonist. The C2C12 cell line was selected for the measurement of ALK2 activity using BMP6 as the agonist. The kinase specificity was defined by the specific cell line and agonist. The kinase activity was determined by the status of SMD 1/5/8 phosphorylation stimulated by the agonist.
# HyClone Fetal Bovine Serum was obtained from GE healthcare life sciences (Logan, Utah). BMP6 and BMP9 were purchased from R&D System. […] The compound plates and the white solid MB assay plates were purchased from Greiner Bio-one (Monroe, N.C.).
# HTRF optimization experiments were performed in 384 well plate format. […] Pre-starved cells were then plated in 384 well plate in the starvation medium (containing in 0.1% FBS). After 4 hours, compounds were added to the assay plate and incubated for 30 minutes. The assay plate was then added with BMP6 for C2C12 cells or BMP9 for BAOEC cells and incubated for 30 minutes.
# HTRF assay was performed to measure the status of SMAD 1 phosphorylation after stimulated with the agonist (Table 3). This HTRF phospho SMAD1 cell assay was developed and optimized for the homogenous detection of phospho SMAD 1 levels in cells. […] The plate was incubated at room temperature for overnight.
# ALK1 = ALK1 (Homo sapiens, UniProt P37023); assay: TR-FRET enzymatic ALK kinase assay, ALK1
# ALK1, sequence (P37023 22-503): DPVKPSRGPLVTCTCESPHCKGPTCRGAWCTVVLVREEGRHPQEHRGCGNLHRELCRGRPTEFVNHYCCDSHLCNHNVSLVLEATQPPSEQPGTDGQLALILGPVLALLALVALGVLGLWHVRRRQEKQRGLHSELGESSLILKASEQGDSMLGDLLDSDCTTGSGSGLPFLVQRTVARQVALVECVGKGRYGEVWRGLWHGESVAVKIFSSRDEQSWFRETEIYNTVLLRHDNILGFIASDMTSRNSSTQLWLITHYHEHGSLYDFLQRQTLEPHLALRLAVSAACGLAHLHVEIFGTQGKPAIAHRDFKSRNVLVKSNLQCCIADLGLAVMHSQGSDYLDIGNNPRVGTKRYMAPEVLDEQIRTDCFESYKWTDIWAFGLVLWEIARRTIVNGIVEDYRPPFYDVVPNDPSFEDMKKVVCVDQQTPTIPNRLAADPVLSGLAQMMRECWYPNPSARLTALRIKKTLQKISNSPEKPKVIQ
# Description: (§1) Briefly, the ALKs enzymatic assay was initiated by dispense 2.5 μl enzyme in 1× kinase reaction buffer. The assay plate was then added with compounds followed by incubation at room temperature for 10 minutes. Then 2.5 μl/well substrate was added.
# ALK2 [2] = molecular target: T2, ALK2 (Homo sapiens, UniProt Q04771); assay: TR-FRET enzymatic ALK kinase assay, ALK2
# T2 sequence (Q04771 21-509): T1 sequence (P37172 21-509) with V1M, Q10P, I121L, E162D, S310P
# Description: as §1
# ALK3 = ALK3 (Homo sapiens, UniProt P36894); assay: TR-FRET enzymatic ALK kinase assay, ALK3
# ALK3, sequence (P36894 24-532): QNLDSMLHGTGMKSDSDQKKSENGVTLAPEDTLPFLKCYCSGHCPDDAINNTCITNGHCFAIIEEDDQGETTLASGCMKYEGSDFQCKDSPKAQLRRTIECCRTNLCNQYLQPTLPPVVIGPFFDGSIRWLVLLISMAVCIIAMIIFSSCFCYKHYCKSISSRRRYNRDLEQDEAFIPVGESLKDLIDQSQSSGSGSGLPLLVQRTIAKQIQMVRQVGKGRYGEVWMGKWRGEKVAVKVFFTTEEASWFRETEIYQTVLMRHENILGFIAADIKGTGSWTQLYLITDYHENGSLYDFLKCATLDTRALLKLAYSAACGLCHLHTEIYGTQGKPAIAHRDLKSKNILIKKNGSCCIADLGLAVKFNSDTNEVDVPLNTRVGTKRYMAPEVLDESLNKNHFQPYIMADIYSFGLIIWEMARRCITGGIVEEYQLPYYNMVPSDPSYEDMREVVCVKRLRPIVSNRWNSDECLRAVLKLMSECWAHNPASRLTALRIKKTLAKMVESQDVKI
# Description: as §1
# ALK4 = molecular target: T3, ALK4 (Homo sapiens, UniProt P36896); assay: TR-FRET enzymatic ALK kinase assay, ALK4
# T3 sequence (P36896 24-505): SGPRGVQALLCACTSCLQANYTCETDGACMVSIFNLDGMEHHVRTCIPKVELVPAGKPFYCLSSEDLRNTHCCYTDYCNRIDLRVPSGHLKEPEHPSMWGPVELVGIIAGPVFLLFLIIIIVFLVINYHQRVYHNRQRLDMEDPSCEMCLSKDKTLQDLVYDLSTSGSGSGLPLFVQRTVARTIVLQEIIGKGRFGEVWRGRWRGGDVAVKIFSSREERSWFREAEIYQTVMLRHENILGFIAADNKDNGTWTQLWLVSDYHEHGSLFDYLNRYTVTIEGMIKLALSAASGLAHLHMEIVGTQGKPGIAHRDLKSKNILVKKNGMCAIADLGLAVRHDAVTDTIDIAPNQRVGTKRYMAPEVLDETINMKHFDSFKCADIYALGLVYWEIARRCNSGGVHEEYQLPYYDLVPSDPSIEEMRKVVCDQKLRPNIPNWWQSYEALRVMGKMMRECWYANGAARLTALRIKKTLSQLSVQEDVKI
# Description: as §1
# ALK5 = molecular target: T4, ALK5 (Homo sapiens, UniProt P36897); assay: TR-FRET enzymatic ALK kinase assay, ALK5
# T4 sequence (P36897 34-503): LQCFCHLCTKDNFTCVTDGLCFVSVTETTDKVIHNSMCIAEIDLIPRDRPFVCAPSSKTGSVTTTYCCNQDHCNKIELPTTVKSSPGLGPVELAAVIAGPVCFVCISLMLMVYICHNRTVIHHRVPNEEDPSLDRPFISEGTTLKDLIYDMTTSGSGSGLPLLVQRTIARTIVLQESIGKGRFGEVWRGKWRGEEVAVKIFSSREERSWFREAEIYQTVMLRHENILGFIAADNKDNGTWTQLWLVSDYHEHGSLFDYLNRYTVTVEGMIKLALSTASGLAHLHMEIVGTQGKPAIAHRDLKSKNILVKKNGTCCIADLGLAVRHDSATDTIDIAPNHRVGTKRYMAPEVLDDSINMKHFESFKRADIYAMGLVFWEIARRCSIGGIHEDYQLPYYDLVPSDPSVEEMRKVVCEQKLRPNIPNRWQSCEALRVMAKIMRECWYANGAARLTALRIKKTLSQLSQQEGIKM
# Description: Six ALK kinase enzyme assays were developed for determination of compound activities on ALK1, ALK2, ALK3, ALK4, ALK5 and ALK6.
# as §1
# ALK6 = ALK6 (Homo sapiens, UniProt O00238); assay: TR-FRET enzymatic ALK kinase assay, ALK6
# ALK6, sequence (O00238 14-502): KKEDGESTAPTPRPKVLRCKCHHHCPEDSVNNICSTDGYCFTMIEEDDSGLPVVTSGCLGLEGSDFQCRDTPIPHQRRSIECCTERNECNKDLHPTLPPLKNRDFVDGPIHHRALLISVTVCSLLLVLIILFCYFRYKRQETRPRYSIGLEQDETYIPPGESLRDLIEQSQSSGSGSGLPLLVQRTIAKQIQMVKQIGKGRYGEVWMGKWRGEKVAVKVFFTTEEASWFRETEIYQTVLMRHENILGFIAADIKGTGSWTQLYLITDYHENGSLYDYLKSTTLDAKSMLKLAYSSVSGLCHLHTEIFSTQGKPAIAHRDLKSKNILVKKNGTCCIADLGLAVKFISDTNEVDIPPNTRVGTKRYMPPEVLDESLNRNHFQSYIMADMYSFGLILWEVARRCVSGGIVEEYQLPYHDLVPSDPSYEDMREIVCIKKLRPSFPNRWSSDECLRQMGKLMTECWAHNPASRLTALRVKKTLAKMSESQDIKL
# Description: as §1
# [3] = cell-based assay, read-out: Cell IC50 BMP6
# [4] = Cell IC50 BMP6, cell-based assay
smiles,measurement,setting,value
"C[C@@H]1CNC[C@H](C)N1c1ccc(-c2cnc3c(-c4ccc(Cl)c5ccccc45)cnn3c2)cc1 [Compound 44, 3-(4-chloronaphthalen-1-yl)-6-(4-((2R,6S)-2,6-dimethylpiperazin-1-yl)phenyl)pyrazolo[1,5-a]pyrimidine]",IC50,ALK2 [1]; [3],5.5 µM
same,IC50,ALK1,0.39 µM
same,IC50,ALK2 [2],0.13 µM
same,IC50,ALK3,2 µM
same,IC50,ALK4,> 10 µM
same,IC50,ALK5,> 10 µM
same,IC50,ALK6,> 10 µM
"C[C@@H]1CNC[C@H](C)N1c1ccc(-c2cnc3c(-c4ccc(S(=O)(=O)C(F)(F)F)cc4)cnn3c2)cc1 [Compound 45, 6-(4-((2R,6S)-2,6-dimethylpiperazin-1-yl)phenyl)-3-(4-((trifluoromethyl)sulfonyl)phenyl)pyrazolo[1,5-a]pyrimidine]",IC50,ALK2 [1]; [3],9.16 µM
same,IC50,ALK1,> 10 µM
same,IC50,ALK2 [2],> 10 µM
same,IC50,ALK3,> 10 µM
same,IC50,ALK4,> 10 µM
same,IC50,ALK5,> 10 µM
same,IC50,ALK6,> 10 µM
"CN1CCN(c2ccc(-c3cnc4c(-c5ccc(S(N)(=O)=O)c6ccccc56)cnn4c3)cn2)CC1 [Compound 48, 4-(6-(6-(4-methylpiperazin-1-yl)pyridin-3-yl)pyrazolo[1,5-a]pyrimidin-3-yl)naphthalene-1-sulfonamide]",IC50,ALK2 [1]; [3],12 µM
same,IC50,ALK1,3.9 µM
same,IC50,ALK2 [2],0.56 µM
same,IC50,ALK3,> 10 µM
same,IC50,ALK4,> 10 µM
same,IC50,ALK5,> 10 µM
same,IC50,ALK6,> 10 µM
"NS(=O)(=O)c1ccc(-c2cnn3cc(-c4ccc(N5CCNCC5)nc4)cnc23)c2ccccc12 [Compound 49, 4-(6-(6-(piperazin-1-yl)pyridin-3-yl)pyrazolo[1,5-a]pyrimidin-3-yl)naphthalene-1-sulfonamide]",IC50,ALK2 [1]; [4],0.316 µM
same,IC50,ALK1,1.7 µM
same,IC50,ALK4,> 10 µM
same,IC50,ALK5,> 10 µM
same,IC50,ALK6,> 10 µM
"CC(C)(CN1CCCCC1)Oc1ccc(-c2cnc3c(-c4ccc(S(N)(=O)=O)c5ccccc45)cnn3c2)cc1 [Compound 52, 4-(6-(4-((2-methyl-1-(piperidin-1-yl)propan-2-yl)oxy)phenyl)pyrazolo[1,5-a]pyrimidin-3-yl)naphthalene-1-sulfonamide]",IC50,ALK2 [1]; [4],0.008 µM
same,IC50,ALK1,0.17 µM
same,IC50,ALK4,> 10 µM
same,IC50,ALK5,> 10 µM
same,IC50,ALK6,> 10 µM
"C[C@@H]1CNC[C@H](C)N1c1ccc(-c2cnc3c(-c4ccc([S+](N)(=O)[O-])c(C(F)(F)F)c4)cnn3c2)cc1 [Compound 53, 4-(6-(4-((2R,6S)-2,6-dimethylpiperazin-1-yl)phenyl)pyrazolo[1,5-a]pyrimidin-3-yl)-2-(trifluoromethyl)benzenesulfonamide]",IC50,ALK2 [1]; [3],0.316 µM
same,IC50,ALK1,2.9 µM
same,IC50,ALK2 [2],0.38 µM
same,IC50,ALK3,> 10 µM
same,IC50,ALK4,> 10 µM
same,IC50,ALK5,> 10 µM
same,IC50,ALK6,> 10 µM
"Cc1ccc(-c2cnn3cc(-c4ccc(N5[C@H](C)CNC[C@@H]5C)cc4)cnc23)cc1S(N)(=O)=O [Compound 55, 5-(6-(4-((2R,6S)-2,6-dimethylpiperazin-1-yl)phenyl)pyrazolo[1,5-a]pyrimidin-3-yl)-2-methylbenzenesulfonamide]",IC50,ALK2 [1]; [3],4.73 µM
same,IC50,ALK1,0.8 µM
same,IC50,ALK2 [2],0.19 µM
same,IC50,ALK3,> 10 µM
same,IC50,ALK4,> 10 µM
same,IC50,ALK5,> 10 µM
same,IC50,ALK6,> 10 µM
"NS(=O)(=O)c1ccc(-c2cnn3cc(-c4ccc(C5(O)CCNCC5)nc4)cnc23)c2ccccc12 [Compound 56, 4-(6-(6-(4-hydroxypiperidin-4-yl)pyridin-3-yl)pyrazolo[1,5-a]pyrimidin-3-yl)naphthalene-1-sulfonamide]",IC50,ALK2 [1]; [3],60 µM
same,IC50,ALK1,0.9 µM
same,IC50,ALK2 [2],0.35 µM
same,IC50,ALK3,> 10 µM
same,IC50,ALK4,> 10 µM
same,IC50,ALK5,> 10 µM
same,IC50,ALK6,> 10 µM
"C[C@@H]1CNC[C@H](C)N1c1ccc(-c2cnc3c(-c4ccc(S(N)(=O)=O)c(N)c4)cnn3c2)cc1 [Compound 57, 2-amino-4-(6-(4-((2R,6S)-2,6-dimethylpiperazin-1-yl)phenyl)pyrazolo[1,5-a]pyrimidin-3-yl)benzenesulfonamide]",IC50,ALK2 [1]; [3],0.75 µM
same,IC50,ALK1,0.76 µM
same,IC50,ALK4,> 10 µM
same,IC50,ALK5,> 10 µM
same,IC50,ALK6,> 10 µM
"C[C@@H]1CNC[C@H](C)N1c1ccc(-c2cnc3c(-c4cc(N)cc5ccccc45)cnn3c2)cc1 [Compound 58, 4-(6-(4-((2R,6S)-2,6-dimethylpiperazin-1-yl)phenyl)pyrazolo[1,5-a]pyrimidin-3-yl)naphthalen-2-amine]",IC50,ALK2 [1]; [3],0.09 µM
same,IC50,ALK1,0.073 µM
same,IC50,ALK2 [2],0.036 µM
same,IC50,ALK3,0.37 µM
same,IC50,ALK4,6.1 µM
same,IC50,ALK5,> 10 µM
same,IC50,ALK6,0.95 µM
"C[C@@H]1CNC[C@H](C)N1c1ccc(-c2cnc3c(-c4ccc(N)c5ccccc45)cnn3c2)cc1 [Compound 59, 4-(6-(4-((2R,6S)-2,6-dimethylpiperazin-1-yl)phenyl)pyrazolo[1,5-a]pyrimidin-3-yl)naphthalen-1-amine]",IC50,ALK2 [1]; [3],0.284 µM
same,IC50,ALK1,0.14 µM
same,IC50,ALK2 [2],0.043 µM
same,IC50,ALK3,0.9 µM
same,IC50,ALK4,4.1 µM
same,IC50,ALK5,> 10 µM
same,IC50,ALK6,2.5 µM
"C[C@@H]1CNC[C@H](C)N1c1ccc(-c2cnc3c(-c4cccc(S(N)(=O)=O)c4)cnn3c2)cc1 [Compound 60, 3-(6-(4-((2R,6S)-2,6-dimethylpiperazin-1-yl)phenyl)pyrazolo[1,5-a]pyrimidin-3-yl)benzenesulfonamide]",IC50,ALK2 [1]; [3],0.609 µM
same,IC50,ALK1,0.21 µM
same,IC50,ALK4,> 10 µM
same,IC50,ALK5,> 10 µM
same,IC50,ALK6,> 10 µM
"CS(=O)(=O)c1cccc(-c2cnn3cc(-c4ccc(OCCn5ccnc5)cc4)cnc23)c1 [Compound 102, 6-(4-(2-(1H-imidazol-1-yl)ethoxy)phenyl)-3-(3-(methylsulfonyl)phenyl)pyrazolo[1,5-a]pyrimidine]",IC50,ALK2 [1]; [3],0.225 µM
